According to article PMC6358909, “Synthesis and Biochemical Evaluation of Lid-Open D-Amino Acid Oxidase Inhibitors” (Molecules, 2019):

Experiments:
[1] = target: hDAO (Homo sapiens, UniProt P14920); experiment: Differential scanning fluorimetry (DSF) measurement; format: binding; details: for Tm: hDAO without inhibitor 59.4 °C; for ~ΔTm: shift versus hDAO without inhibitor
Procedure: We started with compounds 8 and 9 (Figure 3). […] The activity of this 3-Cl substituted derivative (11) was lower than 100 nM therefore we synthesized the 3-Me derivative (12). […] DAAO binding and activity of representative compounds have been confirmed in orthogonal differential scanning fluorometry (DSF) and the coupled Horseradish peroxidase (HRP)/Amplex Red assays, respectively (see Supplementary materials). The designed compounds were docked into the protein structure obtained from the complex of 8 by the removal of the ligand. […]
Scheme S4. Synthesis of the headgroup […]
Results from differential scanning fluorimetry (DSF) measurements
Compound Structure DSF measurement […]

[2] = target: T1, Human DAAO (Homo sapiens, UniProt P14920); experiment: KYNA enzyme inhibition assay (D-kynurenine substrate, fluorescence); format: biochemical; details: 5 µM FAD, pH 8, 37 °C 1 h, standard deviations in parenthesis
T1 construct: purchased TargetEx Ltd. (Dunakeszi, Hungary)
Procedure: The prepared compounds were tested as DAAO inhibitors with the KYNA enzyme inhibitory assay. Although D-serine is a natural substrate of DAAO, its metabolite is not suitable for fluorometric evaluation. However in the applied assay, D-kynurenine can be metabolized by DAAO [19] and the metabolite (KYNA) has a favorable fluorescence property. Thus it can be used for fluorescence measurements.
D-2-Amino-4-(2-aminophenyl)-4-oxobutanoic acid (D-KYN) was used to measure D-amino acid oxidase activity based on the protocol described in ref. [18, 20]. Human DAAO (purchased from TargetEx Ltd. (Dunakeszi, Hungary)) was used for the measurements. The buffer contained 20 mM TRIS-HCl and 100 mM NaCl (pH = 8). Flavin adenine dinucleotide (FAD—obtained from Sigma (St. Louis, MO, USA)) in 5 µM concentration was also included in the assay. Compounds were dissolved originally in DMSO and the measured samples were diluted with the buffer solution (the final DMSO concentration was always below 5%). The mixed solution was incubated at 37 °C for 1 h. After the enzymatic reaction, ZnCl2 dissolved in H2O was added and vortex-mixed. Single point measurements were performed at 20 µm inhibitor concentration. For the IC50 measurements, the inhibitors were used at 5 nM, 50 nM, 500 nM, 2.5 µM, 5 µM, 10 µM, 50 µM. Measurements were carried out on a Citation3 cell imaging multi-mode microplate reader (BioTek Instruments Inc., Winooski, VT, USA) with […]. The applied wavelengths were 340 nm and 396 nm.
Result from the coupled HRP/Amplex Red assay for compound 13
Compound 13 was evaluated in both the KYNA and the coupled HRP/Amplex red assays. Assay […]
HRP/Amplex assay KYNA assay […]
hDAAO original concentration 1 µg / 1500 µL buffer 1 µg / 400 µL buffer hDAAO assay concentration 0.25 µg / 1500 µL buffer 0.25 µg / 400 µL buffer FAD conc. in assay 5 µM 5 µM
Ligand conc. in assay 20 µM 20 µM
Incubation period No Yes (1 hour, 37 °C)
Type of the measurement Kinetic (45 min) single point detection
Detection fluorescent fluorescent
Assay interference Yes No
Ligand autofluorescence No No
Dose response curve obtained for compound 13 using the HRP/Amplex red assay
(1 picture or pasted object on this page, not shown here)

[3] = tested on: DAAO; design: method as in PMID 25001371; details: cited from earlier work

hDAO, sequence (P14920 whole entry): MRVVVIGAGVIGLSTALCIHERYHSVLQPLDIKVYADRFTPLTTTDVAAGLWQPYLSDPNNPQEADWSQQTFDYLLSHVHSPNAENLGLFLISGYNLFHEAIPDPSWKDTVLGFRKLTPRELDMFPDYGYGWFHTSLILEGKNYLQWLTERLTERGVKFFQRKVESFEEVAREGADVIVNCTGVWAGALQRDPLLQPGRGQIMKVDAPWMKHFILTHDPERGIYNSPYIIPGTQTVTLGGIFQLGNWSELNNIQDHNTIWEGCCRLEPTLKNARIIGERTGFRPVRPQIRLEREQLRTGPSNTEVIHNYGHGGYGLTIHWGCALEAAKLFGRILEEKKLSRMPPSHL
T1 sequence (P14920 whole entry): as above

Tm [1] [°C] | ~ΔTm [1] [°C] | IC50 [2] [µM] | Compound | competitive D-serine inhibitory properties [3]
72.0 | ~12.6 | 0.073 | COc1cccc(-c2cc(=O)oc3cc(O)c(CCc4cc(O)c(=O)[nH]n4)cc23)c1 [Compound 13] | 
74.7 | ~15.3 | 0.112 | O=c1cc(-c2ccccc2)c2cc(CCc3cc(O)c(=O)[nH]n3)c(O)cc2o1 [Compound 8, reference compound] | 
 |  | 0.069 | O=c1cc(-c2cccc(Cl)c2)c2cc(CCc3cc(O)c(=O)[nH]n3)c(O)cc2o1 [Compound 11] | 
 |  | 0.119 | O=c1cc(-c2ccc(Cl)cc2)c2cc(CCc3cc(O)c(=O)[nH]n3)c(O)cc2o1 [Compound 9] | 
 |  | 0.052 | Cc1cccc(-c2cc(=O)oc3cc(O)c(CCc4cc(O)c(=O)[nH]n4)cc23)c1 [Compound 12] | 
 |  |  | O=C(O)CCc1cc2c(-c3ccccc3)cc(=O)oc2cc1O [Compound 7] | low nanomolar range
 |  | 0.474 | Cc1ccc(-c2cc(=O)oc3cc(O)c(CCc4cc(O)c(=O)[nH]n4)cc23)cc1 [Compound 10] | 
